Structures can show the parent of a compound that is named as a salt. Where two headings read alike, the source gives them in different places.
Test: Phase 2a study: trough and peak plasma drug levels
Format: in vivo, human (postmenopausal women)
Conditions: for concentration at 8 day / concentration at 15 day / concentration at 29 day: female, human, plasma; for concentration at 29 day: Day 29, ITT
Description: This is a randomized, placebo-controlled, double-blind, parallel-group, Phase 2, multi-center, dose-finding study to evaluate the effects of (R)-6-(2-(ethyl(4-(2-(ethylamino)ethyl)benzyl)amino)-4-methoxyphenyl)-5,6,7,8-tetrahydronaphthalen-2-ol dihydrochloride in the treatment of vasomotor symptoms in postmenopausal women.
A total of 100 eligible patients will be randomized to receive one of 5 blinded treatment regimens. (R)-6-(2-(ethyl(4-(2-(ethylamino)ethyl)benzyl)amino)-4-methoxyphenyl)-5,6,7,8-tetrahydronaphthalen-2-ol dihydrochloride at doses 0, 10, 25, 50 or 100 mg will be dosed for 28-days.
(R)-6-(2-(ethyl(4-(2-(ethylamino)ethyl)benzyl)amino)-4-methoxyphenyl)-5,6,7,8-tetrahydronaphthalen-2-ol dihydrochloride was provided by sponsor in capsule form for oral administration. All doses (0, 10, 25, 50 and 100 mg) were provided as identical presentations. Each patient was provided with 2 containers of 28-capsules each at the start of treatment and took one capsule from each container every day for 28-days. Placebo contained the same excipients as active medication, but without (R)-6-(2-(ethyl(4-(2-(ethylamino)ethyl)benzyl)amino)-4-methoxyphenyl)-5,6,7,8-tetrahydronaphthalen-2-ol dihydrochloride. The patients were instructed to take the capsules orally in the fasted state (morning).
All efficacy endpoints were to be analyzed for the ITT and PP populations, with the exception of the drug levels (analyzed for the ITT population only). Safety endpoints were to be analyzed for the Safety/ITT population.
Values for ranges of steady state trough levels and steady state Cmax can be derived from Tables 4 and 5. Steady state values are the values listed for days 8 and 15. The ranges were derived from the mean number listed in the table plus or minus one standard deviation (the number in parenthesis after each mean value). For example a steady state trough level ranging from 0.11 ng/mL to 0.79 ng/mL is derived from Table 4 by taking the trough level for 10 mg, 0.45 ng/mL, adding 0.34 to get the upper value of 0.79 and subtracting 0.34 to get the lover value of 0.11. Other ranges for steady state trough levels and ranges for Cmax can be similarly derived from the data in Tables 4 and 5.

For `CCNCCc1ccc(CN(CC)c2cc(OC)ccc2[C@@H]2CCc3cc(O)ccc3C2)cc1` [drug, (R)-6-(2-(ethyl(4-(2-(ethylamino)ethyl)benzyl)amino)-4-methoxyphenyl)-5,6,7,8-tetrahydronaphthalen-2-ol dihydrochloride], the “Peak Level of drug” value (10 mg daily PO, Day 1, ITT, mean (SD)) was 0.56 (0.34) ng/mL, the “Peak Level of drug” value (10 mg daily PO, Day 8, ITT, mean (SD)) was 0.92 (0.52) ng/mL and the “Peak Level of drug” value (10 mg daily PO, Day 15, ITT, mean (SD)) was 0.92 (0.69) ng/mL. For the same molecule, the “Peak Level of drug” value (25 mg daily PO, Day 1, ITT, mean (SD)) was 1.41 (0.63) ng/mL, the “Peak Level of drug” value (25 mg daily PO, Day 8, ITT, mean (SD)) was 2.53 (0.74) ng/mL and the “Peak Level of drug” value (25 mg daily PO, Day 15, ITT, mean (SD)) was 2.97 (1.09) ng/mL. For the same molecule, the “Peak Level of drug” value (50 mg daily PO, Day 1, ITT, mean (SD)) was 2.83 (1.72) ng/mL, the “Peak Level of drug” value (50 mg daily PO, Day 8, ITT, mean (SD)) was 6.36 (2.58) ng/mL and the “Peak Level of drug” value (50 mg daily PO, Day 15, ITT, mean (SD)) was 6.22 (3.46) ng/mL. The “Peak Level of drug” value (100 mg daily PO, Day 1, ITT, mean (SD)) was 8.39 (4.04) ng/mL, the “Peak Level of drug” value (100 mg daily PO, Day 8, ITT, mean (SD)) was 15.47 (7.14) ng/mL and the “Peak Level of drug” value (100 mg daily PO, Day 15, ITT, mean (SD)) was 12.76 (5.28) ng/mL. It also gave a concentration at 8 day (oral, 10 mg, derived from Table 4 (0.45 ± 0.34, Day 8), read-out: steady state trough level range (mean plus or minus one standard deviation)) of 0.11 to 0.79 ng/mL, a concentration at 8 day (10 mg daily PO, Day 8, ITT, mean (SD), read-out: Mean Trough Level of Drug) of 0.45 ng/mL and a concentration at 15 day (10 mg daily PO, Day 15, ITT, mean (SD), read-out: Mean Trough Level of Drug) of 0.49 ng/mL. The concentration at 29 day (10 mg daily PO, mean (SD), read-out: Mean Trough Level of Drug) was 0.34 ng/mL, the concentration at 8 day (25 mg daily PO, Day 8, ITT, mean (SD), read-out: Mean Trough Level of Drug) was 1.33 ng/mL and the concentration at 15 day (25 mg daily PO, Day 15, ITT, mean (SD), read-out: Mean Trough Level of Drug) was 1.49 ng/mL. The concentration at 29 day (25 mg daily PO, mean (SD), read-out: Mean Trough Level of Drug) was 1.18 ng/mL, the concentration at 8 day (50 mg daily PO, Day 8, ITT, mean (SD), read-out: Mean Trough Level of Drug) was 3.11 ng/mL and the concentration at 15 day (50 mg daily PO, Day 15, ITT, mean (SD), read-out: Mean Trough Level of Drug) was 3.39 ng/mL. The concentration at 29 day (50 mg daily PO, mean (SD), read-out: Mean Trough Level of Drug) was 3.23 ng/mL, the concentration at 8 day (100 mg daily PO, Day 8, ITT, mean (SD), read-out: Mean Trough Level of Drug) was 6.91 ng/mL and the concentration at 15 day (100 mg daily PO, Day 15, ITT, mean (SD), read-out: Mean Trough Level of Drug) was 6.66 ng/mL. For the same molecule, the concentration at 29 day (100 mg daily PO, mean (SD), read-out: Mean Trough Level of Drug) was 6.03 ng/mL.
